Laboratory results as given in patent US11814444B2, “Cyclic polypeptides for PCSK9 inhibition” (Ra Pharmaceuticals, Inc., priority 2018, dated 2023).
Numbered stars: 1 amine (or outer) side, 2 acyl side, 3 side chain; on linkers, the order of the positions; unused ones are H or OH. Bridge positions count the residues as written; N and C are the ends. Square brackets hold non-standard residues; d marks the D form. Peptide text beside a SMILES is read from it. * marks the point of attachment. Trp(7-aza) = N[C@@H](Cc1c[nH]c2ncccc12)C(=O)O; mXylylene = c1cc(C[*:1])cc(C[*:2])c1; NMeE = CN[C@@H](CCC(=O)O)C(=O)O; Tle = CC(C)(C)[C@H](N)C(=O)O; αMeV = CC(C)[C@](C)(N)C(=O)O; Dpg = CCCC(N)(CCC)C(=O)O; Iva = CC[C@](C)(N)C(=O)O; NMeA = CN[C@@H](C)C(=O)O; Ac5c = NC1(C(=O)O)CCCC1; Nva = CCC[C@H](N)C(=O)O; Thp = NC1(C(=O)O)CCOCC1; Ac4c = NC1(C(=O)O)CCC1; Ac3c = NC1(C(=O)O)CC1; Aib = CC(C)(N)C(=O)O; Ms = CS(=O)(=O)*; Mpa = O=C(O)CCS

Key:
PCSK9 = PCSK9 (Homo sapiens, UniProt Q8NBP7); experiment: PCSK9 Alexa FRET Standard assay (displacement of AlexaFluor647 tagged cyclic peptide Reagent A); format: binding; settings: 0.5 nM PCSK9, 20 nM AF cyclic peptide Reagent A
Sequence of PCSK9 (Q8NBP7 153-692): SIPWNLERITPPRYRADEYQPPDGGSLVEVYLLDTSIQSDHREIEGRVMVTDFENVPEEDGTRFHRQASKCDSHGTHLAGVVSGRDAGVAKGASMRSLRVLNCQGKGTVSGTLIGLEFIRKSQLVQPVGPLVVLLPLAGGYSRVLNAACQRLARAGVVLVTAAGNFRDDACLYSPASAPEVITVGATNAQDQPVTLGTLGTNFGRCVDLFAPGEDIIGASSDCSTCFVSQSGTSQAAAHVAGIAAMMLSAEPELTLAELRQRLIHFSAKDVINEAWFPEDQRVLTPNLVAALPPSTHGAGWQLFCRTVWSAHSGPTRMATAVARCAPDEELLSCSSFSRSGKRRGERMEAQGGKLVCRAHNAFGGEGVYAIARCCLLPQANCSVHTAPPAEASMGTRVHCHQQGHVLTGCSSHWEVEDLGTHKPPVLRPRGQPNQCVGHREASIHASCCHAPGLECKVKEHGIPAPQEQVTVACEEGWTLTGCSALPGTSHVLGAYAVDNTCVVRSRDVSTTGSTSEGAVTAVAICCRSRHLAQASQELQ
Summary of the method: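 TR-FRET displacement: 0.5 nM biotinylated PCSK9 with 1.25 nM Strep-Eu and 20 nM AlexaFluor-tagged cyclic peptide (final) in 50 mM HEPES pH 7.4, 0.15 M NaCl, 5 mM CaCl2, 0.01% BSA, 0.01% P20, ≥2 h at room temperature. IC50 from sigmoidal fit, converted to Ki via peptide KD; falling Eu counts flagged false positives.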

[1] = biological target: human PCSK9 / human LDLR EGFa domain interaction (Homo sapiens, UniProt Q8NBP7); experiment: TR-FRET assay of inhibition of the PCSK9-LDLR protein-protein interaction; format: binding; settings: 20 nM avitag-biotinylated human PCSK9, 20 nM his-tagged human LDLR EGFa domain, 2 hours, room temperature
Sequence of human PCSK9 / human LDLR EGFa domain interaction (Q8NBP7 153-692): as above
Sequence of human PCSK9 / human LDLR EGFa domain interaction (Q8NBP7 31-152 partner limits assumed): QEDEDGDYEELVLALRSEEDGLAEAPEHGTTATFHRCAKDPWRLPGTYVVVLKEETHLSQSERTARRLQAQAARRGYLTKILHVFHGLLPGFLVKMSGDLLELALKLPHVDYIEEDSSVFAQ
Summary of the method: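 Avitag-biotinylated human PCSK9 (20 nM) and his-tagged human LDLR EGFa domain (20 nM) were incubated with 5 nM Ulight streptavidin and 5 nM europium anti-6×His for 2 h at room temperature. Buffer: 50 mM HEPES, 150 mM NaCl, 5 mM CaCl2, 0.01% BSA, 0.01% P20. IC50 from 4-parameter fit of dose-response.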

Row | Compound | IC50 (PCSK9) | IC50 [1]
1 | CC(=O)N[C@H]1CSCc2cccc(c2)CSC[C@@H](C(N)=O)NC(=O)[C@H]([C@@H](C)O)NC(=O)[C@](C)(C(C)C)NC(=O)[C@H](Cc2ccc(O)cc2)NC(=O)[C@H](C)NC(=O)C2(CCOCC2)NC(=O)[C@H](Cc2c[nH]c3ncccc23)NC(=O)[C@H]([C@@H](C)O)NC(=O)[C@@H]2CCCN2C(=O)[C@H](Cc2ccc(O)cc2)NC(=O)[C@H](C(C)(C)C)NC1=O [Compound 181] (Ac-C[Tle]YPT[Trp(7-aza)][Thp]AY[αMeV]TC-NH2; linker 1-12 via mXylylene) | 1000 to 21000 nM | 21000 to 50000 nM
2 | CC[C@]1(C)NC(=O)[C@H](Cc2c[nH]c3ncccc23)NC(=O)[C@H]([C@@H](C)O)NC(=O)[C@@H]2CCCN2C(=O)[C@H](Cc2ccc(O)cc2)NC(=O)[C@H](C(C)(C)C)NC(=O)[C@@H](NC(C)=O)CSCc2cccc(c2)CSC[C@@H](C(N)=O)NC(=O)[C@H]([C@@H](C)O)NC(=O)[C@](C)(C(C)C)NC(=O)[C@H](Cc2ccc(O)cc2)NC(=O)[C@H](C)NC1=O [Compound 182] (Ac-C[Tle]YPT[Trp(7-aza)][Iva]AY[αMeV]TC-NH2; linker 1-12 via mXylylene) | 1000 to 21000 nM | 21000 to 50000 nM
3 | CC(=O)N[C@H]1CSCc2cccc(c2)CSC[C@@H](C(N)=O)NC(=O)[C@H]([C@@H](C)O)NC(=O)[C@](C)(C(C)C)NC(=O)[C@H](Cc2ccc(O)cc2)NC(=O)[C@H](C)NC(=O)C2(CCC2)NC(=O)[C@H](Cc2c[nH]c3ncccc23)NC(=O)[C@H]([C@@H](C)O)NC(=O)[C@@H]2CCCN2C(=O)[C@H](Cc2ccc(O)cc2)NC(=O)[C@H](C(C)(C)C)NC1=O [Compound 183] (Ac-C[Tle]YPT[Trp(7-aza)][Ac4c]AY[αMeV]TC-NH2; linker 1-12 via mXylylene) | 1000 to 21000 nM | 21000 to 50000 nM
4 | CC(=O)N[C@H]1CSCc2cccc(c2)CSC[C@@H](C(N)=O)NC(=O)[C@H]([C@@H](C)O)NC(=O)[C@](C)(C(C)C)NC(=O)[C@H](Cc2ccc(O)cc2)NC(=O)[C@H](C)NC(=O)C2(CCCC2)NC(=O)[C@H](Cc2c[nH]c3ncccc23)NC(=O)[C@H]([C@@H](C)O)NC(=O)[C@@H]2CCCN2C(=O)[C@H](Cc2ccc(O)cc2)NC(=O)[C@H](C(C)(C)C)NC1=O [Compound 184] (Ac-C[Tle]YPT[Trp(7-aza)][Ac5c]AY[αMeV]TC-NH2; linker 1-12 via mXylylene) | 1 to 100 nM | 100 to 1000 nM
5 | CC(=O)N[C@H]1CSCc2cccc(c2)CSC[C@H](C(N)=O)NC(=O)[C@H]([C@@H](C)O)NC(=O)[C@](C)(C(C)C)NC(=O)[C@H](Cc2ccc(O)cc2)NC(=O)[C@H](C)NC(=O)C2(CCC2)NC(=O)[C@H](Cc2c[nH]c3ncccc23)NC(=O)[C@H]([C@@H](C)O)NC(=O)[C@@H]2CCCN2C(=O)[C@H](Cc2ccc(O)cc2)NC(=O)[C@H](C(C)(C)C)NC1=O [Compound 185] (Ac-C[Tle]YPT[Trp(7-aza)][Ac4c]AY[αMeV]T[dC]-NH2; linker 1-12 via mXylylene) | 1 to 100 nM | 1 to 100 nM
6 | CC(=O)N[C@H]1CSCc2cccc(c2)CSC[C@H](C(N)=O)NC(=O)[C@H]([C@@H](C)O)NC(=O)[C@](C)(C(C)C)NC(=O)[C@H](Cc2ccc(O)cc2)NC(=O)[C@H](C)NC(=O)C2(CCCC2)NC(=O)[C@H](Cc2c[nH]c3ncccc23)NC(=O)[C@H]([C@@H](C)O)NC(=O)[C@@H]2CCCN2C(=O)[C@H](Cc2ccc(O)cc2)NC(=O)[C@H](C(C)(C)C)NC1=O [Compound 186] (Ac-C[Tle]YPT[Trp(7-aza)][Ac5c]AY[αMeV]T[dC]-NH2; linker 1-12 via mXylylene) | 1 to 100 nM | 1 to 100 nM
7 | CCCC1(CCC)NC(=O)[C@H](Cc2c[nH]c3ncccc23)NC(=O)[C@H]([C@@H](C)O)NC(=O)[C@@H]2CCCN2C(=O)[C@H](Cc2ccc(O)cc2)NC(=O)[C@H](C(C)(C)C)NC(=O)[C@@H](NC(C)=O)CSCc2cccc(c2)CSC[C@H](C(N)=O)NC(=O)[C@H]([C@@H](C)O)NC(=O)[C@](C)(C(C)C)NC(=O)[C@H](Cc2ccc(O)cc2)NC(=O)[C@H](C)NC1=O [Compound 188] (Ac-C[Tle]YPT[Trp(7-aza)][Dpg]AY[αMeV]T[dC]-NH2; linker 1-12 via mXylylene) | 1000 to 21000 nM | 1000 to 21000 nM
8 | CNC(=O)[C@H]1CSCc2cccc(c2)CSC[C@H](NC(C)=O)C(=O)N[C@@H](C(C)(C)C)C(=O)N[C@@H](Cc2ccc(O)cc2)C(=O)N2CCC[C@H]2C(=O)N[C@@H]([C@@H](C)O)C(=O)N[C@@H](Cc2c[nH]c3ncccc23)C(=O)NC(C)(C)C(=O)N[C@@H](C)C(=O)N[C@@H](Cc2ccc(O)cc2)C(=O)N[C@@](C)(C(C)C)C(=O)N[C@@H]([C@@H](C)O)C(=O)N1 [Compound 189] (Ac-C[Tle]YPT[Trp(7-aza)][Aib]AY[αMeV]T[dC]-NHMe; linker 1-12 via mXylylene) | 1000 to 21000 nM | 21000 to 50000 nM
9 | CC(=O)N[C@H]1CSCc2cccc(c2)CSC[C@H](C(N)=O)NC(=O)[C@H]([C@@H](C)O)NC(=O)[C@](C)(C(C)C)NC(=O)[C@H](Cc2ccc(O)cc2)NC(=O)[C@H](C)NC(=O)C2(CC2)NC(=O)[C@H](Cc2c[nH]c3ncccc23)NC(=O)[C@H]([C@@H](C)O)NC(=O)[C@@H]2CCCN2C(=O)[C@H](Cc2ccc(O)cc2)NC(=O)[C@H](C(C)(C)C)NC1=O [Compound 191] (Ac-C[Tle]YPT[Trp(7-aza)][Ac3c]AY[αMeV]T[dC]-NH2; linker 1-12 via mXylylene) | 1 to 100 nM | 1 to 100 nM
10 | CC(C)[C@]1(C)NC(=O)[C@H](Cc2ccc(O)cc2)NC(=O)[C@H](C)NC(=O)C2(CCC2)NC(=O)[C@H](Cc2c[nH]c3ncccc23)NC(=O)[C@H]([C@@H](C)O)NC(=O)[C@@H]2CCCN2C(=O)[C@H](Cc2ccc(O)cc2)NC(=O)[C@H](C(C)(C)C)NC(=O)[C@@H](NS(C)(=O)=O)CSCc2cccc(c2)CSC[C@H](C(N)=O)NC(=O)[C@H]([C@@H](C)O)NC1=O [Compound 192] (Ms-C[Tle]YPT[Trp(7-aza)][Ac4c]AY[αMeV]T[dC]-NH2; linker 1-12 via mXylylene) | 1 to 100 nM | 1 to 100 nM
11 | CCC[C@@H]1NC(=O)[C@H](Cc2ccc(O)cc2)NC(=O)[C@H](CCC(=O)O)NC(=O)[C@H](C)N(C)C(=O)[C@H](Cc2c[nH]c3ncccc23)NC(=O)[C@H]([C@@H](C)O)NC(=O)[C@H](Cc2c[nH]cn2)NC(=O)[C@H](Cc2ccc(O)cc2)NC(=O)[C@H](C(C)(C)C)NC(=O)CCSCc2cccc(c2)CSC[C@@H](C(N)=O)NC(=O)[C@H]([C@@H](C)O)NC1=O [Compound 207] ([Mpa][Tle]YHT[Trp(7-aza)][NMeA]EY[Nva]TC-NH2; linker 1-12 via mXylylene) | 50000 to 100000 nM | 50000 to 100000 nM
12 | CCC[C@@H]1NC(=O)[C@H](Cc2ccc(O)cc2)NC(=O)[C@H](CCC(=O)O)N(C)C(=O)[C@H](CCC)NC(=O)[C@H](Cc2c[nH]c3ncccc23)NC(=O)[C@H]([C@@H](C)O)NC(=O)[C@H](Cc2c[nH]cn2)NC(=O)[C@H](Cc2ccc(O)cc2)NC(=O)[C@H](C(C)(C)C)NC(=O)CCSCc2cccc(c2)CSC[C@@H](C(N)=O)NC(=O)[C@H]([C@@H](C)O)NC1=O [Compound 208] ([Mpa][Tle]YHT[Trp(7-aza)][Nva][NMeE]Y[Nva]TC-NH2; linker 1-12 via mXylylene) | 50000 to 100000 nM | 50000 to 100000 nM
